Reference: patent US20160348148A1, “MICROWELL PLATE FOR HIGH-THROUGHPUT DETECTION AND APPLICATION THEREOF” (SHANGHAI JIAOTONG UNIVERSITY, priority 2013, published 2016)
Like-named read-outs stand apart in the source and are kept apart here.

What was measured:
hCBS = biological target: T1, hCBS (Homo sapiens, UniProt P35520); test: High-throughput screening of hCBS enzymatic reaction inhibitors (H2S detection with DTNB in microwell plate); format: biochemical
T1 construct: made in house
T1 sequence (P35520 1-551): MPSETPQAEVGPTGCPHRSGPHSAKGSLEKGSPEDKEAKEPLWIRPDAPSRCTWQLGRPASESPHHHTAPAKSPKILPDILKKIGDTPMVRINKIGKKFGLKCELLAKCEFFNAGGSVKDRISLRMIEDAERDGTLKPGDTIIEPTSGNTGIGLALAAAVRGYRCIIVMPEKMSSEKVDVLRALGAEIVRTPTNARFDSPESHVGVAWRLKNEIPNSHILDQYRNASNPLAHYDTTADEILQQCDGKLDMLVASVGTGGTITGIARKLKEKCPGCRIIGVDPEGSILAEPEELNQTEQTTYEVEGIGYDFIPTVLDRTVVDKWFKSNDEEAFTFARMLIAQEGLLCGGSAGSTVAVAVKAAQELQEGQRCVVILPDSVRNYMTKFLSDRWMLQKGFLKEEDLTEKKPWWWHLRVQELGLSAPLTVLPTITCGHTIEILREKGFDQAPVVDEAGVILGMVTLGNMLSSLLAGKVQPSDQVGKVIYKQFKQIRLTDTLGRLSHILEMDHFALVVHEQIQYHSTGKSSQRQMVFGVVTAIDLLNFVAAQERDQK

hDDC = biological target: T2, hDDC (Homo sapiens, UniProt P20711); test: IC50 to hDDC (specificity test, coupled enzyme assay); format: biochemical
T2 construct: made in house
T2 sequence (P20711 1-480): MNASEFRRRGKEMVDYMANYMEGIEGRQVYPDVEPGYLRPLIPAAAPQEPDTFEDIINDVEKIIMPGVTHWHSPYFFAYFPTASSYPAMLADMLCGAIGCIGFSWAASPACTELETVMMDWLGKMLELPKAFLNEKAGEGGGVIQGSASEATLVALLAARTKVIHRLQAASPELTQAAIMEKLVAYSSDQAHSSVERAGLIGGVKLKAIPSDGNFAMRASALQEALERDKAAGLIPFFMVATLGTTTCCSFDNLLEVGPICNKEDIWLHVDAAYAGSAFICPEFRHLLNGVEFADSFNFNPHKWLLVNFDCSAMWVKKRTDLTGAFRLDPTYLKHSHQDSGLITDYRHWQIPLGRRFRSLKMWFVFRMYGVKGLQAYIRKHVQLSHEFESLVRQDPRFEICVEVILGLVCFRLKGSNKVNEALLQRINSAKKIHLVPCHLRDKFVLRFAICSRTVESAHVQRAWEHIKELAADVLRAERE
Method: By referring to the experiment method in Assay Drug Dev Technol. […] Smithson, IC50 of the 9 compounds to hDDC was determined.

[1] = 100 nM hCBS, 4 mM L-Cys, 4 mM D,L-HCys, pH 8.6, 60 min at 37° C., read-out: IC50 to hCBS

| IC50 (hCBS; [1]) | IC50 (hDDC; read-out: IC50 to hDDC) | SMILES | IC50 (hCBS) | IC50 (hDDC) |
| --- | --- | --- | --- | --- |
| 8 µM | 16 µM | CCCCCCCCCCCCCCCC[N+](C)(C)CCN(Cc1ccc(OC)cc1)c1ncccn1 [Compound 2] |  |  |
| 15 µM | 25 µM | CCN(CC)c1ccc(C(=C2C=CC(=[N+](CC)CC)C=C2)c2ccc(N(CC)CC)cc2)cc1 [Compound 3] |  |  |
| 20 µM | 300 µM | CC1CCN(C2=C(Cl)C(=O)c3ccccc3C2=O)CC1 [Compound 5] |  |  |
| 30 µM | 110 µM | COc1ccc2c(NCCCCCCNc3c4ccccc4nc4cc(OC)ccc34)c3ccccc3nc2c1 [Compound 6] |  |  |
| 40 µM | 60 µM | N=C(N)NCCCS(=O)(=O)Nc1ccc(Nc2c3ccccc3nc3cc([N+](=O)[O-])ccc23)cc1 [Compound 7] |  |  |
|  |  | C/C1=C2/[N]([Co][OH])[C@H]([C@H](CC(N)=O)[C@@]2(C)CCC(=O)NC[C@@H](C)OP(=O)(O)OC2[C@@H](CO)O[C@H](n3cnc4cc(C)c(C)cc43)[C@H]2O)[C@]2(C)N=C(/C(C)=C3N=C(/C=C4N=C1[C@@H](CCC(N)=O)C\4(C)C)[C@@H](CCC(N)=O)[C@]\3(C)CC(N)=O)[C@@H](CCC(N)=O)[C@]2(C)CC(N)=O (stereo partly shown) [Compound 8, Hydroxocobalamin, reference compound] | 35 µM | 150 µM |

| SMILES | IC50 (hCBS; [1]) | IC50 (hDDC; read-out: IC50 to hDDC) | IC50 (hCBS) | IC50 (hDDC) |
| --- | --- | --- | --- | --- |
| Cn1ncnc2c(=O)n(C)c(=O)nc1-2 [Compound 9] | 12 µM |  |  |  |
